The subject of series [1] is immature mouse uterus. Kind of series: Immature mouse uterine growth assay. The conditions noted are these: for biological activity of gel filtration fraction of aged peptide: 1 μg i.p.; for uterotrophic effect of agent alone: peptide even at a dose of 10 μg/mouse, FIG. 13a; for inhibition of the uterotrophic effect of estradiol: Pep 1 μg i.p. one hour before E2 0.5 μg i.p.; for inhibition of the uterotrophic effect of estradiol / inhibition of the uterotrophic effect of tamoxifen: FIG. 13b; for inhibition of the uterotrophic effect of tamoxifen: Pep 1 μg i.p. one hour before Tam 1.0 μg i.p. The series is classed as in vivo. How it is done: Immature Mouse Uterine Growth Assay.
Differences between groups were evaluated, employing the non-parametric Wilcoxon Sum of Ranks test (one-sided).
A general note: Size exclusion chromatography separates by hydrodynamic size, large species first.

Series [2] relates to MCF-7 human breast cancer xenografts. Kind of series: Human breast cancer xenograft assay, MCF-7. It counts as in vivo. Conditions: for tumor volumes versus E2 alone group (Wilcoxon ranks-sum test): MCF-7, day 30 (FIG. 7: 20 days and 30 days) after tumor implantation, p<0.05; for growth (tumor volume) of MCF-7 xenografts in E2-supplemented SCID mice: peptide 1 μg i.p. twice a day, tamoxifen 50 μg i.p. once a day, 30-day observation. Here is the method:
Human Breast Cancer Xenograft Assay. A bioassay for anti-breast cancer activity was performed according to Bennett et al. (23;24). Confluent MCF-7 human breast cancer cells were trypsinized into suspension and pelleted by centrifugation at 200×g. The pellet was then solidified into a fibrin clot by exposing it to 10 μl of fibrinogen (50 mg/ml) and 10 μl of thrombin (50 units/ml). The solid mass of MCF-7 cells was then cut into pieces 1.5 mm in diameter. A tumor segment of ˜1.5 mm in diameter was implanted under the kidney capsule of an immunodeficient ICR-SCID male mouse (Taconic Farms) that weighed about 25 g. Estrogen supplementation was accomplished by s.c. implantation of a silastic tubing capsule containing solid E2 inserted on the day of tumor implantation. Peptide was injected i.p. every twelve hours at a dose of 1 μg per mouse. Tumor growth was monitored during survival laparotomy at 10 day intervals by measurement of the diameters of the short (d) and long axes (D) of each tumor, using a dissecting microscope equipped with an ocular micrometer. Tumor volumes were calculated using the formula (π/6) (d)^2D, assuming the tumor shape to be an ellipsoid of revolution around its long axis (D). There were five to seven replicate mice included in each treatment group. Mean tumor volume±standard error in each group was calculated for display of growth curves. Significance of differences between groups were tested using the one-sided Wilcoxon Sum of Ranks Test.
(In xenograft studies the graft and the host belong to different species.)

For series [3] the following is noted: in vivo; cited from earlier work.
In series [4] the test system is T47D human breast cancer xenografts. As to the kind of experiment: Human breast cancer xenograft assay, T47D. The series is classed as in vivo. Conditions: for growth (tumor volume) of T47D xenografts in E2-supplemented SCID mice: peptide 1 μg i.p. twice a day, 30-day observation. How it is done:
(§1) Cell Lines. T47D and MDA-231 human breast cancer cell lines were purchased from the American Type Culture Collection (Manassas, Va.). Growth medium for T47D cells consisted of RPMI 1640 (Life Technologies, Germantown, Md.) supplemented with 10% fetal bovine serum (Life Technologies) and 8 μg/ml bovine insulin (Sigma, St. Louis, Mo.). […] The MCF-7 cell line was obtained from Dr. Alberto C. Baldi, Institute of Experimental Biology and Medicine, Buenos Aires, Argentina, and was maintained as previously described by Gierthy et al. (1991). […] Human Breast Cancer Xenograft Assay. A bioassay for anti-breast cancer activity was performed according to Bennett et al. (23;24). […] The pellet was then solidified into a fibrin clot by exposing it to 10 μl of fibrinogen (50 mg/ml) and 10 μl of thrombin (50 units/ml). The solid mass of MCF-7 cells was then cut into pieces 1.5 mm in diameter. A tumor segment of ˜1.5 mm in diameter was implanted under the kidney capsule of an immunodeficient ICR-SCID male mouse (Taconic Farms) that weighed about 25 g. […] Peptide was injected i.p. every twelve hours at a dose of 1 μg per mouse. Tumor growth was monitored during survival laparotomy at 10 day intervals by measurement of the diameters of the short (d) and long axes (D) of each tumor, using a dissecting microscope equipped with an ocular micrometer. […] There were five to seven replicate mice included in each treatment group. Mean tumor volume±standard error in each group was calculated for display of growth curves. Significance of differences between groups were tested using the one-sided Wilcoxon Sum of Ranks Test.

Series [5] deals with MCF-7/Tam human breast cancer xenografts. Kind of series: Human breast cancer xenograft assay, tamoxifen-resistant MCF-7 subline. It counts as in vivo. The conditions noted are these: for growth (tumor volume) of tamoxifen-resistant MCF-7 subline xenografts in E2-supplemented SCID mice: peptide 1 μg i.p. twice a day, tamoxifen 50 μg i.p. once a day, 30-day observation. Here is the method:
as §1

Series [6] deals with MDA-MB-231 human breast cancer xenografts. As to the kind of experiment: Human breast cancer xenograft assay, MDA-MB-231. Conditions: for growth (tumor volume) of ER− MDA-MB-231 xenografts: peptide 1 μg i.p. twice a day, tamoxifen 50 μg i.p. once a day, 30-day observation. It counts as in vivo. Here is the method:
as §1

Series [7] deals with T1, estrogen receptor (rabbit uterine cytosol) (Oryctolagus cuniculus, UniProt G1SML6).
T1 sequence (G1SML6 1-598): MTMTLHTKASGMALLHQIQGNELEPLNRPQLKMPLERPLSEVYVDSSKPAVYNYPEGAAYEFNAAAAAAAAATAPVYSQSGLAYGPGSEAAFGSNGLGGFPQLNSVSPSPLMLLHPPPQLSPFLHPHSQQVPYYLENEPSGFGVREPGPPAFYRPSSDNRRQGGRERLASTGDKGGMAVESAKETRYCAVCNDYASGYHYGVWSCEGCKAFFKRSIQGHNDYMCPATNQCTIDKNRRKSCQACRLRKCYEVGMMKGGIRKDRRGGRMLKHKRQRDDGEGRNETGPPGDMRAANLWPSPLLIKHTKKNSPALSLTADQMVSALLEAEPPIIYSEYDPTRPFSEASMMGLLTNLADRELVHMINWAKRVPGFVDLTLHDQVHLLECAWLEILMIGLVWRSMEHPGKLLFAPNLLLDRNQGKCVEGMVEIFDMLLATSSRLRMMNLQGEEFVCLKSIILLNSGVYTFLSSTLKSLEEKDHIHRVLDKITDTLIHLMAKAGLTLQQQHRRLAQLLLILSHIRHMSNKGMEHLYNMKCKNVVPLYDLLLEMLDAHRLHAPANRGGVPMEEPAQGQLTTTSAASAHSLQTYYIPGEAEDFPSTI
As to the kind of experiment: Assessment of estrogen receptor antagonism ([3H]estradiol binding). How it is done:
Assessment of Estrogen Receptor Antagonism. Commercially obtained rabbit uteri (Pel-Freez Biological, Rogers, A R) were used as a source of estrogen receptor. Uteri were pulverized in a stainless steel impact mortar under liquid nitrogen and homogenized (20% w/v) in assay buffer (10 mM Tris (pH 7.4), 1.5 mM EDTA, 10% glycerol, 10 mM monothioglycerol, and 10 mM sodium molybdate] on ice. Centrifugation (50,000×g) for 1 h yielded a supernatant containing cytosol, which was adjusted with assay buffer to 2.5 mg protein/ml. All incubations were carried out in triplicate, each containing 100 μl of cytosol, 20 μl of […] 6,7-[3H]estradiol (50 Ci/mmol; DuPont Pharmaceuticals Company, Wilmington, Del., U.S.A.), and 80 μl of putative antagonist in assay buffer. Total count tubes received 20 μl of [3H]estradiol and 180 μl of assay buffer. After incubation overnight at 4° C., all but the total count tubes received 300 μl of dextran-coated charcoal suspension; tubes were agitated for 15 min and then centrifuged (1,000×g) for 15 min. Supernatants were decanted into counting vials, scintillant was added, and protein-bound tritium was determined by liquid scintillation counting.

Series [8] concerns MCF-7 breast cancer cells. The conditions noted are these: ERα-positive breast cancer (MCF-7) cells; Background of Example IV; cited from earlier work.
Series [9] concerns human breast cancer lines. The conditions noted are these: DeFreest et al., J Pept Res 63:409-419, 2004; cited from earlier work.

Entries after “also recorded” stand apart in the source; their conditions may differ. Square brackets hold non-standard residues; d marks the D form. Ends that are not written are not given here. Hyp = O=C(O)[C@@H]1C[C@@H](O)CN1

“QMTPVNPG (listed as Homo sapiens) [SEQ ID NO: 2]”: the “biological activity of stored inactive peptide after brief treatment with 4M urea” value in series [1] is “restored its biological activity”. Also, in [1] (Stored over 1 year (lyophilized, −20° C.), 1 μg per mouse i.p.), the “% Inhibition of E2-Stimulated Growth of Immature Mouse Uterus ± SE” value is 0 ± 2%. In addition, the “biological activity of gel filtration fraction of aged peptide” value in series [1] (higher molecular weight fraction (FIG. 2b, left side of peak)) was “biologically inactive”; in series [1] (lower molecular weight fraction (FIG. 2b, right side of peak)) it was “active”. For the same compound, the “optimal dose for inhibition of estrogen-stimulated growth of mouse uterus” value in series [1] (i.p., FIG. 1a) was found to be 1 μg/mouse. In addition, the “anti-estrotrophic activity as a function of storage time (shelf-life)” value in [1] (stored at −20° C. in the lyophilized state, 1 μg per mouse, FIG. 1b) is reported as “diminished to insignificant levels after five weeks of storage”. Besides, the “biological activity of aged peptide” value in series [1] (stored in the lyophilized state at −20° C. for over one year) was “completely biologically inactive”.

With “EMTPVNPG (listed as Homo sapiens) [SEQ ID NO: 6]”, the “biological activity of stored inactive peptide after brief treatment with 4M urea” value in [1] is “regenerated by 4M urea”.

Regarding `CC/C(=C(\c1ccccc1)c1ccc(OCCN(C)C)cc1)c1ccccc1` [tamoxifen], in [2], the “tumor volumes versus E2 alone group (Wilcoxon ranks-sum test)” value is reported as “significantly different” and the “growth (tumor volume) of MCF-7 xenografts in E2-supplemented SCID mice” value is listed as “prevented growth; also recorded: no increase in tumor volume”. The “users with uterine cancer as side effect” value in [3] is 0.2%. In addition, in series [4], the “growth (tumor volume) of T47D xenografts in E2-supplemented SCID mice” value is recorded as “prevented growth”. Also, the “growth (tumor volume) of tamoxifen-resistant MCF-7 subline xenografts in E2-supplemented SCID mice” value in [5] is on record as “resistant to tamoxifen in vivo; also recorded: only minimally effective”. The “uterotrophic effect of agent alone” value in series [1] (i.p.) is on record as “stimulate the growth of the immature mouse uterus”. The “growth (tumor volume) of ER− MDA-MB-231 xenografts” value in series [6] is on record as “Neither peptide nor tamoxifen were effective; also recorded: did not affect the growth”.

In the case of “EMTOVNOG (EMT[Hyp]VN[Hyp]G; listed as Homo sapiens) [SEQ ID NO: 4]”, in [2], the “tumor volumes versus E2 alone group (Wilcoxon ranks-sum test)” value is “significantly different”. For the same compound, in series [2], the “growth (tumor volume) of MCF-7 xenografts in E2-supplemented SCID mice” value was “prevented growth; also recorded: no significant increase in tumor volume”. In addition, the “tumor volumes versus E2 alone group (Wilcoxon Ranks Sum Test)” value in series [4] (T47D, day 30, p<0.05) was “significantly different”; in [5] (MCF-7 subline made resistant to tamoxifen, day 30, p<0.05), “significantly different”. Further, in [4], the “growth (tumor volume) of T47D xenografts in E2-supplemented SCID mice” value is recorded as “completely prevented tumor growth”. The “growth (tumor volume) of tamoxifen-resistant MCF-7 subline xenografts in E2-supplemented SCID mice” value in series [5] is reported as “completely prevented the xenograft growth; also recorded: completely stopped the growth”. Also, the “inhibition of the uterotrophic effect of estradiol” value in [1] (listed as Pep) is reported as “significantly different”; in series [1] (listed as peptide), “inhibited the uterotrophic effect of tamoxifen as well as that of estradiol”. In addition, the “inhibition of the uterotrophic effect of tamoxifen” value in series [1] is on record as “significantly inhibited tamoxifen's uterotrophic effect”; in series [1] (listed as Pep), “significantly different”; in series [1] (listed as peptide), “inhibited the uterotrophic effect of tamoxifen”. Moreover, the “uterotrophic effect of agent alone” value in series [1] (i.p.) is recorded as “no uterotrophic effect whatsoever”. In series [7] (cell-free system), the “competition/interference with estrogen binding to the estrogen receptor” value was “does not interfere with the binding of [^3H]estradiol to the estrogen receptor”. Moreover, the “interference with E2 binding to ER” value in series [7] (peptide concentration range of 10^−10M to 10^−5M) is reported as “no interference with E2 binding to ER”. The “differences in tumor volumes between groups” value in series [6] (MDA-MB-231, FIG. 11) was “no differences in tumor volumes”. In addition, in [6], the “growth (tumor volume) of ER− MDA-MB-231 xenografts” value was “Neither peptide nor tamoxifen were effective; also recorded: had no effect on the growth”.

Turning to Cyclo[EMTOVNOGQ], the “expression of estrogen receptor-α (ERα)” value in [8] is recorded as “downregulation of expression of estrogen receptor-α (ERα)”. Also, in series [9], the “proliferation of human breast cancer lines in immunocompromised mice” value is on record as “inhibit proliferation of human breast cancer lines”.

These data come from US7943577B2, “Alpha-fetoprotein peptides and uses thereof” (Albany Medical College, priority 2001, dated 2011).
